Biological target: T1, RXRα homodimer (Homo sapiens, UniProt P19793)
T1 sequence (P19793 1-462): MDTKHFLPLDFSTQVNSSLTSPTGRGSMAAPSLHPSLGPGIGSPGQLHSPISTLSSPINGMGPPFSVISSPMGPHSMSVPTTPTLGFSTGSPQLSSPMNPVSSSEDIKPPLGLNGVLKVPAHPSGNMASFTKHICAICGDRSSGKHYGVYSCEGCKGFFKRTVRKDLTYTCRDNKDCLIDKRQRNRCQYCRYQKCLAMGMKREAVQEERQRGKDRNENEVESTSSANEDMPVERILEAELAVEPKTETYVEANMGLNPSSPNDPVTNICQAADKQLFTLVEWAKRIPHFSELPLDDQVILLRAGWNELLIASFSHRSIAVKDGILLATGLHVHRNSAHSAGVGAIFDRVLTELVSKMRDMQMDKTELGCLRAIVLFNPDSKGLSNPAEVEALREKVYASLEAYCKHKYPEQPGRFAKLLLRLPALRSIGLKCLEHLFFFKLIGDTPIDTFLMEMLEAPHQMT
Assay: RXR homodimer co-transfection assay in CV-1 cells (CRBPIITKLUC reporter)
Format: cell-based
Conditions: for Agonist Efficacy (%): mean of n > 2; for Antagonist Efficacy (%) / IC50: RXRα homodimer; for Antagonist Efficacy (%): % of maximal inhibition in presence of fixed concentration (3.2×10^−8 M) of known RXR agonist; for IC50: in presence of known RXR agonist, read-out: Antagonist IC50; for Activity in the context of RXR homodimers (in words): summary of Table 1
Description: This assay is described in further detail in U.S. Pat. Nos. 4,981,784 and 5,071,773, the disclosures of which are incorporated herein by reference.
The co-transfection assay provides a method for identifying functional agonists which mimic, or antagonists which inhibit, the effect of native hormones, and quantifying their activity for responsive IR proteins. In this regard, the co-transfection assay mimics an in vivo system in the laboratory. Importantly, activity in the co-transfection assay correlates very well with known in vivo activity, such that the co-transfection assay functions as a qualitative and quantitative predictor of a tested compounds in vivo pharmacology. See, e.g., T. Berger et al. 41 J. Steroid Biochem. Molec. Biol. 773 (1992), the disclosure of which is herein incorporated by reference.
In the co-transfection assay, cloned cDNA for one or more IRs (e.g., human RARα, RXRα, or PPARγ), alone or in combination (i.e. for heterodimer assays) under the control of a constitutive promoter (e.g., the SV 40, RSV or CMV promoter) is introduced by transfection (a procedure to introduce exogenous genes into cells) into a background cell substantially devoid of endogenous IRs. These introduced gene(s) direct the recipient cells to make the IR protein(s) of interest. A further gene is also introduced (co-transfected) into the same cells in conjunction with the IR gene(s). This further gene, comprising the cDNA for a reporter protein, such as firefly luciferase (LUC), controlled by an appropriate hormone responsive promoter containing a hormone response element (HRE). This reporter plasmid functions as a reporter for the transcriptional-modulating activity of the target IR(s). Thus, the reporter acts as a surrogate for the products (mRNA then protein) normally expressed by a gene under control of the target receptor(s) and their native hormone(s).
Exposing the transfected cells to an agonist ligand compound increases reporter activity in the transfected cells. This activity can be conveniently measured, e.g., by increasing luciferase production and enzymatic activity, which reflects compound-dependent, IR-mediated increases in reporter transcription. To detect antagonists, the co-transfection assay is carried out in the presence of a constant concentration of an known agonist to the target IR (e.g., 4-[(3,5,5,8,8-Pentamethyl-5,6,7,8-tetrahydro-2-naphthyl)ethenyl]benzoic acid (Ligand Pharmaceuticals, Inc.) for RXRα) known to induce a defined reporter signal. Increasing concentrations of an antagonist will decrease the reporter signal (e.g., luciferase production). The co-transfection assay is therefore useful to detect both agonists and antagonists of specific IRs. Furthermore, it determines not only whether a compound interacts with a particular IR, but whether this interaction mimics (agonizes) or blocks (antagonizes) the effects of native or synthetic regulatory molecules on target gene expression, as well as the specificity and strength of this interaction.
The receptor expression plsmid was cotransfected along with a reporter plasmid at 50 ng/well, the internal control plasmid pRS-β-Gal at 50 ng/well and filler DNA, pGEM, at 90 ng/well.

[1] = RXRα homodimer cotransfection, CV-1 cells
[2] = not calculated if efficacy <10%

| Compound | Agonist Efficacy (%) [1] [%] | Antagonist Efficacy (%) | IC50 [2] [nM] | EC50 (RXRα homodimer cotransfection, CV-1 cells, not calculated if efficacy <10%, read-out: Agonist EC50) [nM] | Activity in the context of RXR homodimers (in words) |
| --- | --- | --- | --- | --- | --- |
| CCCCOc1c(\C(C)=C/C=C/C(C)=C/C(=O)O)cc(C(C)C)nc1C(C)C [Example 1, 7-(3-Butoxy-2,6-diisopropyl-pyridin-4-yl)-3-methyl-octa-2(E),4(E),6(Z)-trienoic Acid] | 1 | 93 | 3.5 | – | highly efficacious and potent antagonist activity with little or no agonists activity |
| CCCOc1c(\C(C)=C/C=C/C(C)=C/C(=O)O)cc(C(C)C)nc1C(C)C [Example 2, 7-(2,6-Diisopropyl-3-propoxy-pyridin-4-yl)-3-methyl-octa-2(E),4(E),6(Z)-trienoic Acid] | 4 | 88 | 4.1 | – | highly efficacious and potent antagonist activity with little or no agonists activity |
| CCOc1c(\C(C)=C/C=C/C(C)=C/C(=O)O)cc(C(C)C)nc1C(C)C [Example 3, 7-(2,6-Diisopropyl-3-ethoxy-pyridin-4-yl)-3-methyl-octa-2(E),4(E),6(Z)-trienoic acid] | 51 | 3 | – | 2 | agonist activity |

Further lines, with some results ahead:

| Agonist Efficacy (%) [1] [%] | Antagonist Efficacy (%) | IC50 [2] [nM] | EC50 (RXRα homodimer cotransfection, CV-1 cells, not calculated if efficacy <10%, read-out: Agonist EC50) [nM] | Compound | Activity in the context of RXR homodimers (in words) |
| --- | --- | --- | --- | --- | --- |
| 9 | 76 | 8.7 | – | C/C(=C/C=C/C(C)=C/C(=O)O)c1cc(C(C)C)nc(C(C)C)c1OCC(F)F [Example 4, 7-[3-(2,2-Difluoro-ethoxy)-2,6-diisopropyl-pyridin-4-yl]-3-methyl-octa-2(E),4(E),6(Z)-trienoic acid] | highly efficacious and potent antagonist activity with little or no agonists activity |
| 3 | 85 | 8 | – | C/C(=C/C=C/C(C)=C/C(=O)O)c1cc(C(C)C)nc(C(C)C)c1OCC(F)(F)F [Example 5, 7-[2,6-Diisopropyl-3-(2,2,2-trifluoro-ethoxy)-pyridin-4-yl]-3-methyl-octa-2(E),4(E),6(Z)-trienoic acid] | highly efficacious and potent antagonist activity with little or no agonists activity |
